# According to PMC3853024, “Aromatase inhibitor treatment with an intravaginal device and its effect on pre-ovulatory ovarian follicles in a bovine model” (Reproductive Biology and Endocrinology : RB&E, 2013):
# Legend:
# ovarian function = test system: ovarian function; set-up: method as in PMID 21696721, PMID 22541551; conditions: cited from earlier work
# plasma progesterone = experiment: Plasma progesterone concentration (radioimmunoassay) after post-treatment ovulation; assay type: in vivo, cattle (Hereford-cross beef heifers); conditions: first 12 days post-ovulation, n=15, P=0.01
# Protocol: Heifers in which a CL was detected were given two luteolytic doses of PGF (12 h apart) and monitored by ultrasonography for ovulation. Five to eight days later, the two largest ovarian follicles were ablated by transvaginal ultrasound-guided follicular aspiration to synchronize follicular wave emergence which was expected to occur 1 to 1.5 days later. Prostaglandin (500 μg cloprostenol, Estrumate, Schering-Plough Animal Health, Pointe-Claire, QC, Canada) was given intramuscularly at 60 and 72 h after follicular ablation to induce regression of the CL and shift from a non-ovulatory to an ovulatory follicular wave. […] Devices were inserted on Day 1 and were kept in place until Day 7 or until ovulation was detected, which ever occurred first. […]
# Plasma progesterone concentrations were determined in duplicate using a commercial solid-phase radioimmunoassay kit (Coat-A-Count; Diagnostic Products Corporation, Los Angeles, CA, USA). […] All samples were analyzed in a single assay; the intra-assay coefficients of variation were 9.7% and 5.8 % for low- (mean, 1.7 ng/mL) and high-reference samples (mean, 18.7 ng/mL), respectively. […]
# [1] = single intravenous dose Day 3 post-ovulation, or 3-day regimen Days 1–3, 3–5 or 5–7 post-ovulation
compound,measurement,setting,value
N#Cc1ccc(C(c2ccc(C#N)cc2)n2cncn2)cc1 [Letrozole],Corpora lutea size following treatment,ovarian function; heifers treated with letrozole for 3 days,larger corpora lutea
same,Circulating FSH concentration,ovarian function; [1],did not induce an elevation
same,Mean plasma luteinizing hormone (LH) concentrations,ovarian function; [1],did increase
same,Plasma progesterone concentrations versus control,plasma progesterone,higher
